Data: patent US20260250318A1, “COMPOSITIONS AND METHODS FOR CROSSING THE BLOOD BRAIN BARRIER” (VOYAGER THERAPEUTICS, INC., priority 2022, published 2026)

System: brains, heart, liver, muscle, and DRG of the NHPs
Assay: Maturation of TTM-001 and TTM-002 capsids, NGS enrichment in NHP tissues
Format: in vivo
Text: This Example describes maturation of the AAV9 capsid variants, TTM-001 (SEQ ID NO: 981 (amino acid) and 983 (DNA), comprising SEQ ID NO: 941 (encoded by SEQ ID NO: 942)) and TTM-002 (SEQ ID NO: 982 (amino acid) and 984 (DNA), comprising SEQ ID NO: […] (encoded by SEQ ID NO: 944)) in NHPs to further enhance their transduction and biodistribution in the central nervous system as well as other tissues, and evolve the AAV capsid variants to provide further cross-species compatibility. Two approaches were used to mature the TTM-001 and TTM-002 capsid sequences in order to randomize and mutate within and around the peptide insert comprised within loop IV of the capsid variant. […] In the first maturation approach, sets of three contiguous amino acids were randomized across the mutagenesis region in the TTM-001 and TTM-002 sequences, which spanned from position 450 to position 466, numbered according to SEQ ID NO: 981 and 982. In the second maturation approach, mutagenic primers were used to introduce point mutations at a low frequency, scattered across the mutagenesis region in the TTM-001 and TTM-002 sequences ranging from position 449 to position 466, numbered according to SEQ ID NO: 981 and 982. AAV capsid variants arising from each maturation approach for TTM-001 and TTM-002 were pooled together, for subsequent testing and characterization in NHPs.
The library of pooled matured AAV capsid variants generated using the first maturation approach and the second maturation approach for the TTM-001 and TTM-002 AAV capsid variants were injected into two NHPs. […] Following RNA recovery and RT-PCR amplification, a systematic NGS enrichment analysis was performed to calculate the fold enrichment ratio relative to an AAV9 control, and the peptides comprised within the variants were identified.
Following the RNA recovery and NGS analysis from the second maturation approach, approximately 680,000 capsid variants were identified. The 680,000 matured capsid variants were then filtered based on samples with a raw virus count greater than 10 and a coefficient of variance (CV) of less than 1, which was calculated for each peptide across the brain samples taken from the two NHPs. […] Using this filtering criteria, this led to approximately 64,000 matured capsid variants.

[1] = NHP DRG, NGS, relative to AAV9 control
[2] = NHP brain, NGS, relative to AAV9 control
[3] = NHP heart, NGS, relative to AAV9 control
[4] = NHP liver DNA, NGS, relative to AAV9 control
[5] = NHP liver RNA, NGS, TTM-001 and TTM-002 matured AAV capsid variants, relative to AAV9 control
[6] = NHP muscle, NGS, relative to AAV9 control
[7] = NGS fold-enrichment, DRG, NHP, relative to AAV9
[8] = NGS fold-enrichment, brain, NHP, relative to AAV9
[9] = NGS fold-enrichment, heart, NHP, relative to AAV9
[10] = NGS fold-enrichment, liver DNA, NHP, relative to AAV9
[11] = NGS fold-enrichment, liver RNA, NHP, relative to AAV9
[12] = NGS fold-enrichment, muscle, NHP, relative to AAV9

Row | Sequence | Fold Enrichment relative to AAV9, DRG (NHP) [1] [fold] | Fold Enrichment relative to AAV9, Brain (NHP) [2] [fold] | Fold Enrichment relative to AAV9, Heart (NHP) [3] [fold] | Fold Enrichment relative to AAV9, Liver DNA (NHP) [4] [fold] | Fold Enrichment relative to AAV9, Liver RNA (NHP) [5] [fold] | Fold Enrichment relative to AAV9, Muscle (NHP) [6] [fold] | Fold Enrichment relative to AAV9, DRG (NHP) [7] [fold] | Fold Enrichment relative to AAV9, Brain (NHP) [8] [fold] | Fold Enrichment relative to AAV9, Heart (NHP) [9] [fold] | Fold Enrichment relative to AAV9, Liver DNA (NHP) [10] [fold] | Fold Enrichment relative to AAV9, Liver RNA (NHP) [11] [fold] | Fold Enrichment relative to AAV9, Muscle (NHP) [12] [fold]
1 | KTINGSGSPHPSCQNQQT | 0.000 | 0.000 | 0.000 | 2.790 | 27.796 | 0.000 |  |  |  |  |  | 
2 | KTINGSGSPHSKLFWQQT | 0.000 | 0.000 | 0.000 | 4.178 | 37.022 | 0.000 |  |  |  |  |  | 
3 | KTINGSGSPHSKPFRQQT | 0.000 | 0.000 | 0.000 | 8.700 | 29.842 | 0.000 |  |  |  |  |  | 
4 | KPRWGSGSPHSKAQNQQT | 0.000 | 0.000 | 375.537 | 0.386 | 51.637 | 0.000 |  |  |  |  |  | 
5 | KTQRKSGSPHSKAQNQQT | 0.000 | 0.000 | 0.000 | 1.439 | 119.659 | 0.000 |  |  |  |  |  | 
6 | KTINGSGSPHSVFENQQT |  |  |  |  |  |  | 0.000 | 0.000 | 0.000 | 0.224 | 10.218 | 0.000
7 | KTINGSGSPHYRYQNQQT | 0.000 | 0.000 | 0.000 | 1.027 | 14.107 | 0.000 |  |  |  |  |  | 
8 | KRYNGSGSPHSKAQNQQT | 0.000 | 0.000 | 0.000 | 0.806 | 15.160 | 0.000 |  |  |  |  |  | 
9 | KTINGSGSPHSKLPKQQT | 0.000 | 0.000 | 0.000 | 0.274 | 11.856 | 0.000 |  |  |  |  |  | 
10 | KTINGSGSPHSKMICQQT | 0.000 | 0.000 | 0.000 | 0.144 | 21.036 | 0.000 |  |  |  |  |  | 
11 | KTINGSGSPHLCVQNQQT | 0.000 | 0.000 | 0.000 | 1.428 | 19.030 | 0.000 |  |  |  |  |  | 
12 | KTINGSGSPHSKNSRQQT | 0.000 | 0.000 | 0.000 | 1.093 | 11.280 | 0.000 |  |  |  |  |  | 
13 | KTINGSGSPHGRYQNQQT |  |  |  |  |  |  | 0.000 | 0.000 | 0.000 | 0.778 | 10.028 | 0.000
14 | KTINGPWSPHRKAQNQQT | 0.000 | 0.000 | 0.000 | 0.434 | 12.103 | 0.000 |  |  |  |  |  | 
15 | KTRTRSGSPHSKAQNQQT | 0.000 | 0.000 | 0.000 | 6.894 | 25.852 | 0.000 |  |  |  |  |  | 
16 | KTINGSGSPHSKACSRQT | 0.000 | 0.000 | 0.000 | 2.468 | 42.696 | 0.000 |  |  |  |  |  | 
17 | KPARGSGSPHSKAQNQQT | 0.000 | 0.000 | 0.000 | 1.391 | 16.793 | 0.000 |  |  |  |  |  | 
18 | KTINGSGSPHSKAQCLKT | 0.000 | 0.000 | 0.000 | 1.453 | 49.565 | 0.000 |  |  |  |  |  | 
19 | KTINGSGSPHSMYMNQQT | 0.000 | 0.000 | 0.000 | 5.840 | 81.106 | 0.000 |  |  |  |  |  | 
20 | KTINGSGSPHPKRQNQQT | 0.000 | 0.000 | 0.000 | 2.355 | 23.055 | 0.000 |  |  |  |  |  | 
